Measured values published in patent publication US10793892B2, “Method for detecting the presence of expanded spectrum β-lactamase-producing bacteria in a sample” (INSERM (INSTITUT NATIONAL DE LA SANTE ET DE LA RECHERCHE …, priority 2011, dated 2020).

Test system: E. coli
Assay: ESBL NDP test using cultured strains
Assay type: biochemical, Escherichia coli
Design: key: (+) and (−) referred to color change being, red to yellow or unchanged, respectively; (+) and (−) referred to color change being, red to yellow or unchanged, respectively
Method: Strains were isolated on Mueller-Hinton agar (Biorad, Marnes-la-Coquette, France) and incubated at 37° C. for 16 h to 24 h before performing the NDP rapid ESBL test as follows. One calibrated inoculated loop (10 μl) of the tested strain was resuspended in 150 μl of 20 mM Tris-HCl lysis buffer previously distributed in Microbead tubes (Ultraclean Microbial DNA isolation kit Bead Tubes, MO BIO Laboratories, Carlsbad, USA). Mechanical lysis of bacteria was performed by strong agitation of Microbead tubes using a vortex adapter (MO BIO Laboratories) for 30 min at room temperature. This bacterial suspension was centrifuged at 10,000×g at room temperature for 5 min. Thirty μl of the supernatant was mixed in a well of a 96-well tray with 100 μl of a 1 ml solution made of 3 mg of purified cefotaxime sodium salt (Sigma-Aldrich, Saint-Quentin-Fallavier, France) in a pH 7.8 phenol red solution. […]. The phenol red solution was made by taking 2 ml of a concentrated pH 8 phenol solution (made from a mixture of phenol red 0.5% in distilled water) to which 16.6 ml of distilled water was added. The pH value was then adjusted to a 7.8 value by adding drops of a 1 N NaOH solution. Mixture of the phenol red solution and the enzymatic suspension being tested was incubated at 37° C. for 30 min. Similarly, culture extracts were analyzed in wells containing cefotaxime and tazobactam (4 mg/ml). Other concentrations of tazobactam and other ß-lactamase inhibitors were tested giving less clear results (data not shown). […] This definition of test positivity will be applied throughout the study.

CO/N=C(\C(=O)N[C@@H]1C(=O)N2C(C(=O)O)=C(COC(C)=O)CS[C@H]12)c1csc(N)n1 [CTX, cefotaxime]
+: ESBL NDP Test from: Colonies (E. coli 09.11, TEM-52) | ESBL NDP Test from: Colonies (E. coli 09.124, TEM-52) | ESBL NDP Test from: Colonies (E. coli 09.129, SHV-12) | ESBL NDP Test from: Colonies (E. coli 09.173, SHV-12) | ESBL NDP Test from: Colonies (E. coli 09.187, SHV-2a) | ESBL NDP Test from: Colonies (E. coli 09.193, SHV-12) | ESBL NDP Test from: Colonies (E. coli 09.207, SHV-2a) | ESBL NDP Test from: Colonies (E. coli 09.225, TEM-52) | ESBL NDP Test from: Colonies (E. coli 09.40, TEM-52) | ESBL NDP Test from: Colonies (E. coli 09.41, SHV-12) | ESBL NDP Test from: Colonies (E. coli 09.66, TEM-52) | ESBL NDP Test from: Colonies (E. coli 09.73, TEM-52) | ESBL NDP Test from: Colonies (E. coli 09.79, SHV-12) | ESBL NDP Test from: Colonies (E. coli 09.92, TEM-52) | ESBL NDP Test from: Colonies (E. coli 10.104, CTX-M-1) | ESBL NDP Test from: Colonies (E. coli 10.11, CTX-M-14) | ESBL NDP Test from: Colonies (E. coli 10.121, CTX-M-2) | ESBL NDP Test from: Colonies (E. coli 10.124, CTX-M-14) | ESBL NDP Test from: Colonies (E. coli 10.130, CTX-M-3) | ESBL NDP Test from: Colonies (E. coli 10.13, CTX-M-14) | ESBL NDP Test from: Colonies (E. coli 10.132, CTX-M-2) | ESBL NDP Test from: Colonies (E. coli 10.16, CTX-M-15) | ESBL NDP Test from: Colonies (E. coli 10.178, CTX-M-27) | ESBL NDP Test from: Colonies (E. coli 10.198, CTX-M-27) | ESBL NDP Test from: Colonies (E. coli 10.204, CTX-M-27) | ESBL NDP Test from: Colonies (E. coli 10.207, CTX-M-27) | ESBL NDP Test from: Colonies (E. coli 10.23, CTX-M-2) | ESBL NDP Test from: Colonies (E. coli 10.32, CTX-M-14) | ESBL NDP Test from: Colonies (E. coli 10.33, CTX-M-15) | ESBL NDP Test from: Colonies (E. coli 10.36, CTX-M-1) | ESBL NDP Test from: Colonies (E. coli 10.38, CTX-M-1) | ESBL NDP Test from: Colonies (E. coli 10.43, CTX-M-15) | ESBL NDP Test from: Colonies (E. coli 10.46, CTX-M-14) | ESBL NDP Test from: Colonies (E. coli 10.49, CTX-M-15) | ESBL NDP Test from: Colonies (E. coli 10.53, CTX-M-9) | ESBL NDP Test from: Colonies (E. coli 10.64, CTX-M-32) | ESBL NDP Test from: Colonies (E. coli 10.73, CTX-M-27) | ESBL NDP Test from: Colonies (E. coli 10.74, CTX-M-15) | ESBL NDP Test from: Colonies (E. coli 10.95, CTX-M-1) | ESBL NDP Test from: Colonies (E. coli A7R5, SHV-3) | Test (color change) (E. coli ACC-1, n=1, second line)
−: ESBL NDP Test from: Colonies (E. coli 09.123, TEM-133) | ESBL NDP Test from: Colonies (E. coli (Belgium), ACC-1) | Test (color change) (E. coli ACC-1, n=1, first line) | ESBL NDP Test from: Colonies (E. coli BG 1106 5698, Penicillinase) | ESBL NDP Test from: Colonies (E. coli BG 1106 6252, Wild-type) | ESBL NDP Test from: Colonies (E. coli BG 1106 6367, Wild-type) | ESBL NDP Test from: Colonies (E. coli BG 1106 7202, Penicillinase) | ESBL NDP Test from: Colonies (E. coli BG 1107 8873, Wild-type) | ESBL NDP Test from: Colonies (E. coli BG 1108 6157, Penicillinase)
